Patent US20260226086A1, “COMPOUNDS AND COMPOSITIONS AS STAT3 DEGRADERS AND USES THEREOF” (REGENTS OF THE UNIVERSITY OF MICHIGAN, priority 2023, published 2026)

What was measured:
Format in all cases: cell-based
STAT3 = target: T1, STAT3 (Homo sapiens, UniProt P40763); assay: HiBiT assay, STAT3 degradation in STAT3-HiBiT KI HeLa cells; settings: 24 h; for DC50: read-out: STAT3 Degradation (HeLa 24 h HiBit) DC50
T1 construct: This cell line is a clone created by using CRISPR-Cas9 to fuse HiBiT to the 3′ end of STAT3 in HeLa cells; host or cells: STAT3-HiBiT KI HeLa cell line (CRISPR-Cas9 knock-in clone)
T1 sequence (P40763 whole entry): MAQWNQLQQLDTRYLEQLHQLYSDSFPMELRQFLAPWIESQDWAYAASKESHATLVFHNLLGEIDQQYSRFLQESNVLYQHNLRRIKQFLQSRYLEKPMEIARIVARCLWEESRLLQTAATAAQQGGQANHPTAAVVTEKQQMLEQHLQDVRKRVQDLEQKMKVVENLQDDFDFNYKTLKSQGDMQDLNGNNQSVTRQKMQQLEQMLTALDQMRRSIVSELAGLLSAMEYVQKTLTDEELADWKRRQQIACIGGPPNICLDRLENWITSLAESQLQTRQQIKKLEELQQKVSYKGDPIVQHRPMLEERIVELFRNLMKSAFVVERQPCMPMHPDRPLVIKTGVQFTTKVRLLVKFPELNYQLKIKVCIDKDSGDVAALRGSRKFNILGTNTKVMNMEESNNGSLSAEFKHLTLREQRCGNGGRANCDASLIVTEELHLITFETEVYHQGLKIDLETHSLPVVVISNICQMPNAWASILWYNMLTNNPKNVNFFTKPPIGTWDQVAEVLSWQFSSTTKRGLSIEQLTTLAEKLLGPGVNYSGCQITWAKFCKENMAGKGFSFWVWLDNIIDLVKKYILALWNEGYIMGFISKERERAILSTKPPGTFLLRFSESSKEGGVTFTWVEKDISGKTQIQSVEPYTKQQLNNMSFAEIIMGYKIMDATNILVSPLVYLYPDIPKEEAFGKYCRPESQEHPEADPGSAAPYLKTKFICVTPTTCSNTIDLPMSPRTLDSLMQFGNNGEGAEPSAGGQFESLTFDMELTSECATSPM
How it was run: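 HeLa cells with CRISPR knock-in of HiBiT at the STAT3 C-terminus, 20000 cells/well, treated with serial compound dilutions for 24 h at 37 °C, 5% CO2. Remaining STAT3 read by Nano-Glo HiBiT lytic luminescence versus untreated cells; IC50 from four-parameter nonlinear fit of triplicate means.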

SU-DHL-1 cells = assay: CellTiter-Glo 2.0 cell viability assay, SU-DHL-1; settings: Homo sapiens, 96 h, 4 days
How it was run: (§1)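 1000 cells per well exposed to serially diluted compounds for 4 days at 37 °C, 5% CO2. Viability measured by CellTiter-Glo 2.0 luminescence versus untreated cells; IC50 from four-parameter nonlinear fit of triplicate means.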

SUP-M2 cells = assay: CellTiter-Glo 2.0 cell viability assay, SUP-M2; settings: SUP-M2, 96 h, 4 days
How it was run: as §1

SMILES | Dmax at 1 µM (STAT3) | DC50 (STAT3) | IC50 (SU-DHL-1 cells) | IC50 (SUP-M2 cells)
CCS(=O)(=O)c1ccc(CNC(=O)[C@H](CCC(N)=O)NC(=O)[C@@H]2CC[C@@H]3CCN(C(=O)[C@H]4CC[C@H](c5cn([C@H](C(=O)N6C[C@H](O)C[C@H]6C(=O)N[C@@H](C)c6ccc(-c7scnc7C)cc6)C(C)(C)C)nn5)CC4)C[C@H](NC(=O)c4cc5cc(C(=O)P(=O)(O)O)ccc5[nH]4)C(=O)N32)cc1 [Compound 18, (2-(((5S,8S,10aR)-8-(((S)-5-amino-1-((4-(ethylsulfonyl)benzyl)amino)-1,5-dioxopentan-2-yl)carbamoyl)-3-((1S,4S)-4-(1-((S)-1-((2S,4R)-4-hydroxy-2-(((S)-1-(4-(4-methylthiazol-5-yl)phenyl)ethyl)carbamoyl)pyrrolidin-1-yl)-3,3-dimethyl-1-oxobutan-2-yl)-1H-1,2,3-triazol-4-yl)cyclohexane-1-carbonyl)-6-oxodecahydropyrrolo[1,2-a][1,5]diazocin-5-yl)carbamoyl)-1H-indole-5-carbonyl)phosphonic acid] | > 80% | 10 to 100 nM | 10 to 100 nM | 100 to 1000 nM
Cc1ncsc1-c1ccc([C@H](C)NC(=O)[C@@H]2C[C@@H](O)CN2C(=O)[C@@H](n2cc(CCCCC(=O)N3CC[C@H]4CC[C@@H](C(=O)N[C@@H](CCC(N)=O)C(=O)NCc5cccc(Cl)c5)N4C(=O)[C@@H](NC(=O)c4cc5cc(C(=O)P(=O)(O)O)ccc5[nH]4)C3)nn2)C(C)(C)C)cc1 [Compound 10, (2-(((5S,8S,10aR)-8-(((S)-5-amino-1-((3-chlorobenzyl)amino)-1,5-dioxopentan-2-yl)carbamoyl)-3-(5-(1-((S)-1-((2S,4R)-4-hydroxy-2-(((S)-1-(4-(4-methylthiazol-5-yl)phenyl)ethyl)carbamoyl)pyrrolidin-1-yl)-3,3-dimethyl-1-oxobutan-2-yl)-1H-1,2,3-triazol-4-yl)pentanoyl)-6-oxodecahydropyrrolo[1,2-a][1,5]diazocin-5-yl)carbamoyl)-1H-indole-5-carbonyl)phosphonic acid] | > 80% | 10 to 100 nM | 10 to 100 nM | 10 to 100 nM
Cc1ncsc1-c1ccc([C@H](C)NC(=O)[C@@H]2C[C@@H](O)CN2C(=O)[C@@H](n2cc(CCCc3cccc(OC[C@H](CCC(N)=O)NC(=O)[C@@H]4CC[C@@H]5CCN(C(=O)C6CCN(C)CC6)C[C@H](NC(=O)c6cc7cc(C(=O)P(=O)(O)O)ccc7[nH]6)C(=O)N54)c3Cl)nn2)C(C)(C)C)cc1 [Compound 32, (2-(((5S,8S,10aR)-8-(((S)-5-amino-1-(2-chloro-3-(3-(1-((S)-1-((2S,4R)-4-hydroxy-2-(((S)-1-(4-(4-methylthiazol-5-yl)phenyl)ethyl)carbamoyl)pyrrolidin-1-yl)-3,3-dimethyl-1-oxobutan-2-yl)-1H-1,2,3-triazol-4-yl)propyl)phenoxy)-5-oxopentan-2-yl)carbamoyl)-3-(1-methylpiperidine-4-carbonyl)-6-oxodecahydropyrrolo[1,2-a][1,5]diazocin-5-yl)carbamoyl)-1H-indole-5-carbonyl)phosphonic acid] | > 80% | 10 to 100 nM | 10 to 100 nM | 100 to 1000 nM
CCS(=O)(=O)c1ccc(CNC(=O)[C@H](CCC(N)=O)NC(=O)[C@@H]2CC[C@@H]3CCN(C(=O)CCCCc4cn([C@@H](C(=O)N5C[C@H](O)C[C@H]5C(=O)N[C@H](C)c5ccc(-c6scnc6C)cc5)C5CCCCC5)nn4)C[C@H](NC(=O)c4cc5cc(C(=O)P(=O)(O)O)ccc5[nH]4)C(=O)N32)cc1 [Compound 20, (2-(((5S,8S,10aR)-8-(((S)-5-amino-1-((4-(ethylsulfonyl)benzyl)amino)-1,5-dioxopentan-2-yl)carbamoyl)-3-(5-(1-((R)-1-cyclohexyl-2-((2S,4R)-4-hydroxy-2-(((R)-1-(4-(4-methylthiazol-5-yl)phenyl)ethyl)carbamoyl)pyrrolidin-1-yl)-2-oxoethyl)-1H-1,2,3-triazol-4-yl)pentanoyl)-6-oxodecahydropyrrolo[1,2-a][1,5]diazocin-5-yl)carbamoyl)-1H-indole-5-carbonyl)phosphonic acid] | > 80% | < 10 nM | < 10 nM | < 10 nM
COCCOCCOCCOCCC(=O)N1CC[C@H]2CC[C@@H](C(=O)N[C@@H](CCC(N)=O)COc3cccc(CCCc4cn([C@H](C(=O)N5C[C@H](O)C[C@H]5C(=O)N[C@@H](C)c5ccc(-c6scnc6C)cc5)C(C)(C)C)nn4)c3Cl)N2C(=O)[C@@H](NC(=O)c2cc3cc(C(=O)P(=O)(O)O)ccc3[nH]2)C1 [Compound 30, (2-(((5S,8S,10aR)-8-(((S)-5-amino-1-(2-chloro-3-(3-(1-((S)-1-((2S,4R)-4-hydroxy-2-(((S)-1-(4-(4-methylthiazol-5-yl)phenyl)ethyl)carbamoyl)pyrrolidin-1-yl)-3,3-dimethyl-1-oxobutan-2-yl)-1H-1,2,3-triazol-4-yl)propyl)phenoxy)-5-oxopentan-2-yl)carbamoyl)-6-oxo-3-(2,5,8,11-tetraoxatetradecan-14-oyl)decahydropyrrolo[1,2-a][1,5]diazocin-5-yl)carbamoyl)-1H-indole-5-carbonyl)phosphonic acid] | > 80% | < 10 nM | < 10 nM | 10 to 100 nM
CC(=O)N1CC[C@H]2CC[C@@H](C(=O)N[C@@H](CCC(N)=O)COc3cccc(CCCc4cn(C[C@H](NC(=O)[C@@H]5C[C@@H](O)CN5C(=O)[C@@H](n5cc(C6CC6)nn5)C(C)(C)C)c5ccc(-c6scnc6C)cc5)nn4)c3Cl)N2C(=O)[C@@H](NC(=O)c2cc3cc(C(=O)P(=O)(O)O)ccc3[nH]2)C1 [Compound 6, (2-(((5S,8S,10aR)-3-acetyl-8-(((S)-5-amino-1-(2-chloro-3-(3-(1-((R)-2-((2S,4R)-1-((S)-2-(4-cyclopropyl-1H-1,2,3-triazol-1-yl)-3,3-dimethylbutanoyl)-4-hydroxypyrrolidine-2-carboxamido)-2-(4-(4-methylthiazol-5-yl)phenyl)ethyl)-1H-1,2,3-triazol-4-yl)propyl)phenoxy)-5-oxopentan-2-yl)carbamoyl)-6-oxodecahydropyrrolo[1,2-a][1,5]diazocin-5-yl)carbamoyl)-1H-indole-5-carbonyl)phosphonic acid] | > 80% | < 10 nM | 10 to 100 nM | 10 to 100 nM
Cc1ncsc1-c1ccc([C@H](C)NC(=O)[C@@H]2C[C@@H](O)CN2C(=O)[C@@H](n2cc(CCCCCCCCC(=O)N3CC[C@H]4CC[C@@H](C(=O)N[C@@H](CCC(N)=O)C(=O)NC(c5ccccc5)c5ccccc5)N4C(=O)[C@@H](NC(=O)c4cc5cc(C(=O)P(=O)(O)O)ccc5[nH]4)C3)nn2)C(C)(C)C)cc1 [Compound 61, (2-(((5S,8S,10aR)-8-(((S)-5-amino-1-(benzhydrylamino)-1,5-dioxopentan-2-yl)carbamoyl)-3-(9-(1-((S)-1-((2S,4R)-4-hydroxy-2-(((S)-1-(4-(4-methylthiazol-5-yl)phenyl)ethyl)carbamoyl)pyrrolidin-1-yl)-3,3-dimethyl-1-oxobutan-2-yl)-1H-1,2,3-triazol-4-yl)nonanoyl)-6-oxodeca-hydropyrrolo[1,2-a][1,5]diazocin-5-yl)carbamoyl)-1H-indole-5-carbonyl)phosphonic acid] |  | > 1000 nM | > 1000 nM | > 1000 nM
Cc1ncsc1-c1ccc([C@H](C)NC(=O)[C@@H]2C[C@@H](O)CN2C(=O)[C@@H](NC(=O)CCCCCCCC(=O)N2CC[C@H]3CC[C@@H](C(=O)N[C@@H](CCC(N)=O)C(=O)NC(c4ccccc4)c4ccccc4)N3C(=O)[C@@H](NC(=O)c3cc4cc(C(=O)P(=O)(O)O)ccc4[nH]3)C2)C(C)(C)C)cc1 [Compound 52, (2-(((5S,8S,10aR)-8-(((S)-5-amino-1-(benzhydrylamino)-1,5-dioxopentan-2-yl)carbamoyl)-3-(9-(((S)-1-((2S,4R)-4-hydroxy-2-(((S)-1-(4-(4-methylthiazol-5-yl)phenyl)ethyl)carbamoyl)pyrrolidin-1-yl)-3,3-dimethyl-1-oxobutan-2-yl)amino)-9-oxononanoyl)-6-oxodecahydropyrrolo[1,2-a][1,5]diazocin-5-yl)carbamoyl)-1H-indole-5-carbonyl)phosphonic acid] |  | 100 to 1000 nM | 100 to 1000 nM | 100 to 1000 nM
Cc1ncsc1-c1ccc([C@H](C)NC(=O)[C@@H]2C[C@@H](O)CN2C(=O)[C@@H](n2cc(CCCc3cccc(OC[C@H](CCC(N)=O)NC(=O)[C@@H]4CC[C@@H]5CCN(C(=O)C(C)C)C[C@H](NC(=O)c6cc7cc(C(=O)P(=O)(O)O)ccc7[nH]6)C(=O)N54)c3Cl)nn2)C(C)(C)C)cc1 [Compound 2, (2-(((5S,8S,10aR)-8-(((S)-5-amino-1-(2-chloro-3-(3-(1-((S)-1-((2S,4R)-4-hydroxy-2-(((S)-1-(4-(4-methylthiazol-5-yl)phenyl)ethyl)carbamoyl)pyrrolidin-1-yl)-3,3-dimethyl-1-oxobutan-2-yl)-1H-1,2,3-triazol-4-yl)propyl)phenoxy)-5-oxopentan-2-yl)carbamoyl)-3-isobutyryl-6-oxodecahydropyrrolo[1,2-a][1,5]diazocin-5-yl)carbamoyl)-1H-indole-5-carbonyl)phosphonic acid] | > 80% | < 10 nM | < 10 nM | < 10 nM
